Usually melting point stands for the temperature, or range, at which the solid turns liquid.

Each structure is given as a SMILES string. Structures can show the parent of a compound that is named as a salt. Where two headings read alike, the source gives them in different places.

Here are results for 28 compounds from patent publication US8815879B2, “Substituted 4-(selenophen-2(or-3)-ylamino)pyrimidine compounds and methods of use thereof” (Kasina Laila Innova Pharmaceuticals Private Limited, priority 2010, dated 2014).

In data set [1] the test system is human lung carcinoma A549 cells. Kind of data set: MTT based cell proliferation assay, A549. The note with it: for inhibition at 10 µg/mL: read-out: Cell Proliferation Inhibition in A549 (Lung carcinoma), % at highest screening dose.
Method: (§1) MTT [3-(4,5-dimethylthiazol-2-yl)-2,5-diphenyltetrazolium bromide] incorporation based cell proliferation assay was performed using standard procedure. […] The assay was carried out according to the instructions provided by the vendor. […] Vehicle control culture wells received only a maximum of 0.5% DMSO. Thereafter, 0.5 mg/ml of MTT reagent was added to each well and the microplate was incubated further for 4 h at 37° C. in presence of 5% CO2. Finally, the cells were solubilized by adding solubilizing solution and allowed to incubate at 37° C. overnight. After complete solubilization of the formazan crystals the absorbance was read at 540 nm in a microplate reader (BioRad, USA).
(§2) The evaluation of cell proliferation inhibitory activities of the compounds was done in two phases—(1) Screening, and (2) half-maximal inhibitory concentration (IC50) determination. In the screening phase, the cells were treated with three different concentrations e.g. 1, 5 and 10 μg/ml.
Data set [2] deals with human colorectal carcinoma HT29 cells. The experiment in a line: MTT based cell proliferation assay, HT29. The note with it: for inhibition at 10 µg/mL: read-out: Cell Proliferation Inhibition in HT29 (Colon carcinoma), % at highest screening dose; for IC50: read-out: Cell Proliferation Inhibition in HT29 (Colon carcinoma), IC50.
Method: as §1, §2
Data set [3] has as its system human prostate DU145 cells. Kind of data set: MTT based cell proliferation assay, DU145. Particulars: for inhibition at 10 µg/mL: read-out: Cell Proliferation Inhibition in DU145 (Prostate carcinoma), % at highest screening dose; for IC50: read-out: Cell Proliferation Inhibition in DU145 (Prostate carcinoma), IC50.
Method: as §1, §2

`COc1cc2ncnc(Nc3cc(C(C)(C)C)[se]c3C(N)=O)c2cc1OCCCN1CCOCC1` (as salt: HCl) [Compound 3, 3-(6-(3-morpholinopropoxy)-7-methoxyquinazolin-4-ylamino)-5-tert-butylselenophene-2-carboxamide] yielded a melting point of 262 to 264 °C.
The same measure, in the same setting: the value for `COc1cc2ncnc(Nc3cc(C(C)(C)C)[se]c3[N+](=O)[O-])c2cc1OCCCN1CCOCC1` (as salt: HCl) [Compound 4, [5-(tert-butyl)-2-nitroselenophen-3-yl][7-methoxy-6-(3-morpholino-propoxy)quinazolin-4-yl]amine] was 240 to 242 °C.
Still for that read-out and setting: the value for `COc1cc2c(Nc3cc(C(C)(C)C)[se]c3C(N)=O)ncnc2cc1OCCCN1CCOCC1` (as salt: HCl) [Compound 5, 3-(7-(3-morpholinopropoxy)-6-methoxyquinazolin-4-ylamino)-5-tert-butylselenophene-2-carboxamide] was 262 to 264 °C; that for `COCCOc1cc2ncnc(Nc3cc(C(C)(C)C)[se]c3C(N)=O)c2cc1OCCOC` (as salt: HCl) [Compound 6, 3-(6,7-bis(2-methoxyethoxy)quinazolin-4-ylamino)-5-tert-butylselenophene-2-carboxamide] was 224 to 226 °C; that for `COc1cc2ncnc(Nc3cc(-c4ccccc4)[se]c3C(N)=O)c2cc1OCCCN1CCOCC1` (as salt: HCl) [Compound 7, 3-(6-(3-morpholinopropoxy)-7-methoxyquinazolin-4-ylamino)-5-phenyl-selenophene-2-carboxamide] was 266 to 270 °C.
Consider `CC(C)(C)c1cc(Nc2ncnc3ccc(N)cc23)c(C(N)=O)[se]1` (as salt: HCl) [Compound 8, 3-(6-aminoquinazolin-4-ylamino)-5-tert-butylselenophene-2-carboxamide], for which the melting point lay within 170 to 172 °C.
The same measure, in the same setting: as for `CC(C)(C)c1cc(Nc2ncnc3ccc(NC(=O)CCl)cc23)c(C(N)=O)[se]1` (as salt: HCl) [Compound 9, 3-(6-(2-chloroacetamido)quinazolin-4-ylamino)-5-tert-butylselenophene-2-carboxamide], the figure is 276 to 278 °C; as for `COC(=O)c1cc(Nc2ncnc3cc(OC)c(OCCCN4CCOCC4)cc23)c(C)[se]1` (as salt: HCl) [Compound 10, methyl 4-(6-(3-morpholinopropoxy)-7-methoxyquinazolin-4-ylamino)-5-methylselenophene-2-carboxylate], 198 to 200 °C; as for `COc1cc2ncnc(Nc3cc(C(N)=O)[se]c3C)c2cc1OCCCN1CCOCC1` (as salt: HCl) [Compound 11, 4-(6-(3-morpholinopropoxy)-7-methoxyquinazolin-4-ylamino)-5-methylselenophene-2-carboxamide], 252 to 254 °C.
Same read-out and setting: as for `CC(C)(C)c1cc(Nc2ncnc3ncccc23)c(C(N)=O)[se]1` (as salt: HCl) [Compound 12, 5-tert-butyl-3-(pyridino[2,3-d]pyrimidin-4-ylamino)selenophene-2-carboxamide], the figure is 242 to 244 °C.
The same measure, in the same setting: the value for `CCc1c(C)sc2ncnc(Nc3cc(C(C)(C)C)[se]c3C(N)=O)c12` (as salt: HCl) [Compound 13, 3-(5-ethyl-6-methylthiopheno[2,3-d]pyrimidin-4-ylamino)-5-tert-butylselenophene-2-carboxamide] was 258 to 260 °C; that for `CC(C)(C)c1cc(Nc2ncnc3cc(C(C)(C)C)[se]c23)c(C(N)=O)[se]1` (as salt: HCl) [Compound 18, 3-(6-tert-butylselenopheno[3,2-d]pyrimidin-4-ylamino)-5-tert-butylselenophene-2-carboxamide] was 212 to 214 °C; that for `CCc1c(C)[se]c2ncnc(Nc3cc(C(C)(C)C)[se]c3C(N)=O)c12` (as salt: HCl) [Compound 19, 3-(5-ethyl-6-methylselenopheno[2,3-d]pyrimidin-4-ylamino)-5-tert-butylselenophene-2-carboxamide] was 278 to 280 °C.
Regarding `COc1cc2ncnc(N(C)c3cc(C(C)(C)C)[se]c3C(N)=O)c2cc1OCCCN1CCOCC1` (as salt: HCl) [Compound 22, 3-(N-(6-(3-morpholinopropoxy)-7-methoxyquinazolin-4-yl)-N-methylamino)-5-tert-butylselenophene-2-carboxamide], the melting point lay in the range of 254 to 256 °C.
Regarding `COc1cc2ncnc(N(CCCl)c3cc(C(C)(C)C)[se]c3C(N)=O)c2cc1OCCCN1CCOCC1` (as salt: HCl) [Compound 23, 3-(N-(6-(3-morpholinopropoxy)-7-methoxyquinazolin-4-yl)-N-(2-chloroethyl)amino)-5-tert-butylselenophene-2-carboxamide], the melting point lay within 190 to 192 °C.
On the same count and under the same terms, the value for `COc1cc2nc(C)nc(Nc3cc(C(C)(C)C)[se]c3C(N)=O)c2cc1OC` (as salt: HCl) [Compound 24, 3-(6,7-dimethoxy-2-methylquinazolin-4-ylamino)-5-tert-butylselenophene-2-carboxamide] was 282 to 284 °C; that for `COC(=O)c1cc(Nc2nc(C)nc3cc(OC)c(OC)cc23)c(C)[se]1` (as salt: HCl) [Compound 25, methyl 4-(6,7-dimethoxy-2-methylquinazolin-4-ylamino)-5-methylselenophene-2-carboxylate] was 276 to 280 °C; that for `COc1cc2nc(CN(C)C)nc(Nc3cc(C(C)(C)C)[se]c3C(N)=O)c2cc1OC` (as salt: HCl) [Compound 27] was 226 to 228 °C.
In the case of `CC(C)(C)c1cc(Nc2ncnc3ncccc23)c(C(N)=O)[se]1` [Compound 12, 5-tert-butyl-3-(pyridino[2,3-d]pyrimidin-4-ylamino)selenophene-2-carboxamide], the inhibition at 10 µg/mL is 7% in data set [1] (Homo sapiens, A549, 72 h); 6.75% in data set [2] (Homo sapiens, HT-29, 72 h); 9.18% in data set [3] (Homo sapiens, DU-145, 72 h).
For `CCc1c(C)sc2ncnc(Nc3cc(C(C)(C)C)[se]c3C(N)=O)c12` [Compound 13, 3-(5-ethyl-6-methylthiopheno[2,3-d]pyrimidin-4-ylamino)-5-tert-butylselenophene-2-carboxamide], in that order: 5.68%, 30.2% and 8.49%.
For `CC(C)(C)c1cc(Nc2ncnc3cc(C(C)(C)C)[se]c23)c(C(N)=O)[se]1` [Compound 18, 3-(6-tert-butylselenopheno[3,2-d]pyrimidin-4-ylamino)-5-tert-butylselenophene-2-carboxamide], in that order: 2.18%, 36.4% and 7.87%.
For `CCc1c(C)[se]c2ncnc(Nc3cc(C(C)(C)C)[se]c3C(N)=O)c12` [Compound 19, 3-(5-ethyl-6-methylselenopheno[2,3-d]pyrimidin-4-ylamino)-5-tert-butylselenophene-2-carboxamide] the same measures were 7.86%, 43.9% and 6.68%.
In the case of `CSc1nc2ncnc(Nc3cc(C(C)(C)C)[se]c3C(N)=O)c2s1` [Compound 20, 3-(2-(methylthio)thiazolo[4,5-d]pyrimidin-7-ylamino)-5-tert-butylseleno-phene-2-carboxamide], in data set [1] (at 10 μg/ml (highest dose tested in screening), micromolar equivalent printed in each cell, three days), the “Cell Proliferation Inhibition in A549 (Lung carcinoma), % at highest screening dose” value came to 1.28% at 23.42 μM. The IC50 in data set [2] (MTT, three days incubation) is 9.54 µM; in data set [3] (MTT, three days incubation) it was 17.9 µM.
Turning to `COc1cc2ncnc(N(C)c3cc(C(C)(C)C)[se]c3C(N)=O)c2cc1OCCCN1CCOCC1` [Compound 22, 3-(N-(6-(3-morpholinopropoxy)-7-methoxyquinazolin-4-yl)-N-methylamino)-5-tert-butylselenophene-2-carboxamide], the inhibition at 10 µg/mL was 3.93% in data set [1] (Homo sapiens, A549, 72 h); 34.3% in data set [2] (Homo sapiens, HT-29, 72 h); 14.7% in data set [3] (Homo sapiens, DU-145, 72 h).
As to `COc1cc2ncnc(N(CCCl)c3cc(C(C)(C)C)[se]c3C(N)=O)c2cc1OCCCN1CCOCC1` [Compound 23, 3-(N-(6-(3-morpholinopropoxy)-7-methoxyquinazolin-4-yl)-N-(2-chloroethyl)amino)-5-tert-butylselenophene-2-carboxamide], the inhibition at 10 µg/mL in data set [1] (Homo sapiens, A549, 72 h) stood at 3.28%; in data set [2] (Homo sapiens, HT-29, 72 h) it was 40.7%; in data set [3] (Homo sapiens, DU-145, 72 h), 22.4%.
Turning to `COc1cc2nc(C)nc(Nc3cc(C(C)(C)C)[se]c3C(N)=O)c2cc1OC` [Compound 24, 3-(6,7-dimethoxy-2-methylquinazolin-4-ylamino)-5-tert-butylselenophene-2-carboxamide], the inhibition at 10 µg/mL in data set [1] (Homo sapiens, A549, 72 h) worked out at 15.1%; in data set [3] (Homo sapiens, DU-145, 72 h) it was 87.7%. For the same compound, the IC50 in data set [2] (Homo sapiens, HT-29, 72 h) came out at 10.6 µM.
For the compound `COC(=O)c1cc(Nc2nc(C)nc3cc(OC)c(OC)cc23)c(C)[se]1` [Compound 25, methyl 4-(6,7-dimethoxy-2-methylquinazolin-4-ylamino)-5-methylselenophene-2-carboxylate], the inhibition at 10 µg/mL came to 2.95% in data set [1] (Homo sapiens, A549, 72 h); 11.8% in data set [2] (Homo sapiens, HT-29, 72 h); 2.59% in data set [3] (Homo sapiens, DU-145, 72 h).
For the compound `COc1cc2nc(C)nc(Nc3cc(C(C)(C)C)[se]c3C(N)=O)c2cc1OCCCN1CCOCC1` [Compound 26, 3-(6-(3-morpholinopropoxy)-7-methoxy-2-methylquinazolin-4-ylamino)-5-tert-butylselenophene-2-carboxamide], the IC50 is 11.7 µM in data set [1] (Homo sapiens, A549, 72 h, read-out: Cell Proliferation Inhibition in A549 (Lung carcinoma), IC50); 4.28 µM in data set [2] (Homo sapiens, HT-29, 72 h); 6.78 µM in data set [3] (Homo sapiens, DU-145, 72 h).
